Assay [1] has as its target α7 nicotinic ACh receptors (Homo sapiens, UniProt P36544). Kind of assay: Electrophysiology, dose-response at α7 nicotinic ACh receptors. The format is cell-based.
The subject of a further assay is db/db mouse. Kind of assay: Murine model of type 2 diabetes mellitus (db/db mouse). The format is in vivo. The conditions noted are these: 1.0 mg/kg oral once daily. From the text:
The db/db mouse, a well established model of type 2 diabetes mellitus, is a leptin-deficient mutant that expresses an obese phenotype and also commonly expresses metabolic symptoms including hyperglycemia, hyperlipidemia and hyperinsulinemia (Halaas et al., 1995 and Lee et al., 1996). This experimental animal model of diabetes was employed in a study designed to determine the effects of (2S,3R)—N-2-((3-pyridinyl)methyl)-1-azabicyclo[2.2.2]oct-3-yl)-3,5-difluorobenzamide on body mass and several additional metabolic parameters.
In this study, (2S,3R)—N-2-((3-pyridinyl)methyl)-1-azabicyclo[2.2.2]oct-3-yl)-3,5-difluorobenzamide was repeatedly administered orally (via gavage) at 1.0 mg/kg once daily starting from the age of approximately 3 weeks and continuing throughout the 7-week study. Nondiabetic heterozygote littermate mice (db/+; designated “Db”) were used as controls. Body weight and food intake were determined twice weekly. The α7 antagonist methyllycaconitine (MLA) was also given concurrently via gavage at 3 mg/kg daily to selected cohorts of db/db (designated “db”) or db/+mice. At the end of the 7-week dosing regimen, total growth rates (overall body weight gain) and average daily food intake were calculated. In addition, glucose levels were assessed in mice fasted overnight. Furthermore, blood sample analytes from mice fasted overnight were collected for measurements of tumor necrosis factor-a (TNF-α), triglycerides and glycosylated hemoglobin (HbA1c). All data are expressed as mean±SEM. For each parameter investigated, differences among all groups were compared by one-way ANOVA with post-hoc Neuman-Keuls multiple comparison test.

The test system of a further assay is CD-1 mice. Kind of assay: Formalin test. It is filed as in vivo, mouse. As for the experimental part: Subjects (adult male CD-1 mice (Charles River, Raleigh, N.C.) weighing approximately 20-25 grams) were removed from their home cage and weighed, then placed in a clear Plexiglas™ observation box for an acclimation period of 20-30 minutes. Mice were then removed from the observation chambers and (2S,3R)—N-2-((3-pyridinyl)methyl)-1-azabicyclo[2.2.2]oct-3-yl)-3,5-difluorobenzamide (as the hydrochloride salt in 0.9% saline) (1, 3 or 10 mg/kg s.c. (calculated with respect to the free base)), morphine (5 mg/kg; s.c.) or 0.9% saline vehicle was administered subcutaneously in a volume of 1 mL/kg. Mice were then returned to the chamber for the predetermined pretreatment time of 30 minutes for (2S,3R)—N-2-((3-pyridinyl)methyl)-1-azabicyclo[2.2.2]oct-3-yl)-3,5-difluorobenzamide and morphine.
The subject's assigned paw was grasped gently and formalin solution was injected into the paw intra-dermally in the middle on the dorsal side. Once injected, the subject was immediately returned to its observation chamber and a timer was started to mark the beginning of Phase I. Each subject was videotaped for the entire 40-minute session. […] The time spent licking during that 1 min interval was recorded, and the presence or absence of paw favoring was noted.
For data analyses, phase I of the test was defined as 0 to 5 minutes after formalin injection, and phase II was defined as 20 to 40 minutes after formalin injection. The time spent licking during the 1 minute intervals during those time frames was recorded and graphed as mean±S.E.M. For comparisons across treatment groups, 1-way analyses of variance (ANOVAs) were performed for each phase of the session with treatment as the […] variable. Post-hoc analyses were performed when appropriate to determine specific group differences.

Assay [2] relates to ovalbumin-sensitized mice. Kind of assay: White blood cell and differential cell counts in BALF. It is filed as in vivo, mouse. As for the experimental part: Using the method of Hamelmann et al, (2S,3R)—N-2-((3-pyridinyl)methyl)-1-azabicyclo[2.2.2]oct-3-yl)-3,5-difluorobenzamide was evaluated for possible inhibition of airway hyper-responsiveness in mice. Briefly, ovalbumin (OVA)-sensitized animals, 12 animals per group, were challenged by nasal inhalation with aerosolized 5% OVA for 25 min on days 21, 23, and 25. The mice were treated with vehicle or (2S,3R)—N-2-((3-pyridinyl)methyl)-1-azabicyclo[2.2.2]oct-3-yl)-3,5-difluorobenzamide subcutaneously (s.c.) twice daily from day 21 to day 26 or once daily intratracheally (i.t.), preceding ovalbumin aerosol challenge by 30 min on days 21, 23 and 25 as well as methacholine challenge or bronchoalveolar lavage fluids (BALF) harvest on day 26. Dexamethasone, the reference standard, was administered at 3 mg/kg orally (p.o.) once daily 60 min before OVA challenge on day 21, 23 and 25 and 60 min before methacholine provocation or BALF harvest on day 26. Noninvasive measurements of airway responsiveness were performed by using whole body plethysmography, in which increases in enhanced pause (Penh) serve as an index of airway obstruction. Responses to inhaled methacholine were measured and calculated as percentage of respective baseline values. Unpaired Student's t-test was used for comparison between the vehicle control and the sham group; one-way ANOVA and Dunnett's post-hoc analyses were applied for comparison between the vehicle control and treated groups. Statistical significance is considered at P<0.05.

The results in this text go back to US9173876B2, “Preparation and therapeutic applications of (2S,3R)-N-2-((3-pyridinyl)methyl)-1-azabicyclo[2.2.2]oct-3-yl)-3,5-difluorobenzamide” (Targacept, Inc., priority 2009, dated 2015).

Molecules are shown by their SMILES.

α7 nicotinic ACh receptors, sequence (P36544 23-502): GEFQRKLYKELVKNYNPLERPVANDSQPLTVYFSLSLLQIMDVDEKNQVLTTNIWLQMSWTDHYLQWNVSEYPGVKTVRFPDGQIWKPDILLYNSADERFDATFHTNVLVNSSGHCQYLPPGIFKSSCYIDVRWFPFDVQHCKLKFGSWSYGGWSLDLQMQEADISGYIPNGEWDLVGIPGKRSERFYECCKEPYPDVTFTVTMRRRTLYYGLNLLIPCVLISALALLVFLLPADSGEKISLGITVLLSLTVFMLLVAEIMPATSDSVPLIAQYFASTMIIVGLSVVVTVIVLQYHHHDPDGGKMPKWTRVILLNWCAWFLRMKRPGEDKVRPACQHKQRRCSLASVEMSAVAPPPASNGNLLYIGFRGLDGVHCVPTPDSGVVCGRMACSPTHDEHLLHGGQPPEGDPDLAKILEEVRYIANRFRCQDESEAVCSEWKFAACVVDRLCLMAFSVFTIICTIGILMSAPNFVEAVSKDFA

In the case of `O=C(N[C@@H]1C2CCN(CC2)[C@H]1Cc1cccnc1)c1cc(F)cc(F)c1` [Compound A], in assay [1], the “Functional mode at the α7 NNR” value is “partial agonist”. For the same compound, the “All parameters measured (body weight gain, food intake, glucose, HbA1c, TNF-α, triglycerides)” value in the assay with db/db mouse (7 weeks, obese db/db mice vs vehicle) is recorded as “significant decrease in all parameters measured”. For the same compound, the “Average daily food consumption” value with db/db mouse (7 weeks, obese mice vs obese controls, FIG. 16) is given as “significantly lower”. Further, in the assay on db/db mouse (7 weeks, obese mice vs vehicle, FIG. 20), the Triglyceride levels result is listed as “significantly lower”. Besides, the “Total body weight gain” value in the assay with db/db mouse (7 weeks, obese mice, FIG. 15) is “significantly lower”. Moreover, the “Fasting plasma glucose levels” value in the assay on db/db mouse (7 weeks, obese mice, FIG. 17) is “significantly inhibited”. Moreover, the “Glycosylated HbA1c levels” value in the assay on db/db mouse (7 weeks, obese mice, FIG. 18) was “significantly inhibited”. Further, the “Pro-inflammatory cytokine TNF alpha” value in the assay with db/db mouse (7 weeks, obese mice, FIG. 19) was “significantly reduced”. Moreover, in the assay on db/db mouse (lean mice (Db), FIG. 16), the Food consumption result is “unaffected”. In addition, the “Time spent licking the paw, phase II” value in the assay on CD-1 mice (10 mg/kg s.c., 20-40 min after formalin, P<0.05) is given as “significant in reducing the time spent licking the paw”. In addition, the “Time spent licking, phase I” value with CD-1 mice (1, 3 or 10 mg/kg s.c., 0-5 min after formalin) is listed as “no statistically significant dose”. Moreover, the “Time spent licking, phase I or phase II, re-scored across the entire time period” value in the assay on CD-1 mice (subsequent analysis of the original videotapes) is reported as “failed to achieve statistical significance”. For the same compound, the “Monocytes in BALF” value in assay [2] (10 mg/kg SC) was “reduced”. For the same compound, in assay [2] (0.1 and 1 mg/kg SC), the “Total WBC and eosinophils in BALF” value is given as “significantly reduced”. Further, in assay [2] (0.1 and 1 mg/kg SC and 10 mg/kg IT), the “Lymphocytes in BALF” value is reported as “reduced”. The “Eosinophils and white blood cells in BALF (summary)” value in assay [2] (multiple administrations, lacks a consistent dose-response relationship) is “significant reduction in eosinophils and white blood cells in BALF”.
